Source: patent US10654834B2 (Venenum Biodesign, LLC, priority 2016, dated 2020)
pEC50: −log10 of the molar value.

Key:
mouse TGR5 receptor = molecular target: T1, mouse TGR5 receptor (Mus musculus, UniProt Q80SS6); test: Mouse TGR5 HTRF cAMP production assay (HEK293-EBNA cells, Cisbio cAMP HiRange kit); assay type: cell-based; conditions: HEK293-EBNA cells overexpressing mouse TGR5, HTRF cAMP assay
T1 construct: host or cells: HEK293-EBNA (293 c18, ATCC CRL10852)
T1 sequence (Q80SS6 1-329): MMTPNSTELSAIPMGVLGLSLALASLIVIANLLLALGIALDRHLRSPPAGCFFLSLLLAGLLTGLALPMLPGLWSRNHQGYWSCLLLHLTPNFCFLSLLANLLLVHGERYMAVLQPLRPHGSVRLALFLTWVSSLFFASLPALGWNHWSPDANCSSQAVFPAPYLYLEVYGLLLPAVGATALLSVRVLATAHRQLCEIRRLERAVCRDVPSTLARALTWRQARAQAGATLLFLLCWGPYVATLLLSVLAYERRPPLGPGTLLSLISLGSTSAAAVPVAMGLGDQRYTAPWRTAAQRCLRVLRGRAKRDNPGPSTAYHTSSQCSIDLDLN
Outline: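 HEK293-EBNA cells stably expressing mouse TGR5 (episomal vector) were suspended in serum-free DMEM with 500 μM IBMX and exposed to 12-point half-log compound dilutions for 1 h at room temperature. cAMP was detected by HTRF (d2-cAMP/anti-cAMP cryptate, 1 h, room temperature), giving EC50 from duplicates.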

human TGR5 receptor = molecular target: T2, human TGR5 receptor (Homo sapiens, UniProt Q8TDU6); test: Human TGR5 cAMP production assay (hTGR5-CHO cells, DiscoveRx cAMP XS+ kit); assay type: cell-based; conditions: luminescent cAMP assay, read-out: Human TGR5 Lum. cAMP Activity (EC50)
T2 construct: host or cells: CHO-K1 (hTGR5-CHO)
T2 sequence (Q8TDU6 1-330): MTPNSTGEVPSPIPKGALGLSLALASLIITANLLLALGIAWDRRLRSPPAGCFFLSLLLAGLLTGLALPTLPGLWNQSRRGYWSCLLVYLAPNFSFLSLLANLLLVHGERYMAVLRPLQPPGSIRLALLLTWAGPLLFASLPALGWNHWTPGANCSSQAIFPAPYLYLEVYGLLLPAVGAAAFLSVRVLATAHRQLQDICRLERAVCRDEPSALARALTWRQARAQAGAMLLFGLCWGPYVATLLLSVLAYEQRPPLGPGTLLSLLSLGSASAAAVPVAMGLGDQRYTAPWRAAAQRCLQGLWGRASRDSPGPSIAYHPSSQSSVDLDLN
Outline: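 CHO-K1 cells stably expressing hTGR5, in PBS with IBMX and cAMP antibody, treated with half-log compound dilutions for 1 h at room temperature. cAMP measured by enzyme-fragment complementation luminescence after overnight detection; EC50 values reported.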

pEC50 (mouse TGR5 receptor)	pEC50 (human TGR5 receptor)	SMILES
> 7.00	6.00 to 7.00	N#Cc1ccc(CCNC(=O)[C@@H]2CCCN2c2cc(-c3ccc(CCC(=O)N[C@@H](CCCNC(=N)N)C(=O)O)cc3)cc(C(F)(F)F)n2)cc1 [Compound 207, (S)-2-(3-(4-(2-((S)-2-((4-cyanophenethyl)carbamoyl)pyrrolidin-1-yl)-6-(trifluoromethyl)pyridin-4-yl)phenyl)propanamido)-5-guanidino-pentanoic acid]
> 7.00	> 7.00	N#Cc1ccc(CCNC(=O)[C@@H]2CCN2c2cc(N3CCC(CCN)CC3)nc(C(F)(F)F)n2)cc1 [Compound 246, (S)-1-(6-(4-(2-aminoethyl)piperidin-1-yl)-2-(trifluoromethyl)pyrimidin-4-yl)-N-(4-cyanophenethyl)azetidine-2-carboxamide]
> 7.00	6.00 to 7.00	N=C(N)N1CCC(CCCC2CCN(c3cc(N4CC[C@H]4C(=O)NCCc4ccc(C(F)(F)F)cc4)nc(C(F)(F)F)n3)CC2)CC1 [Compound 288, (S)-1-(6-(4-(3-(1-carbamimidoylpiperidin-4-yl)propyl)piperidin-1-yl)-2-(trifluoromethyl)pyrimidin-4-yl)-N-(4-(trifluoromethyl)phenethyl)-azetidine-2-carboxamide]
> 7.00	6.00 to 7.00	O=C(NCCc1ccc(C(F)(F)F)cc1)[C@@H]1CCCN(c2cc(N3CCN(C(=O)CO)CC3)nc(C(F)(F)F)n2)C1 [Compound 348, (R)-1-(6-(4-(2-hydroxyacetyl)piperazin-1-yl)-2-(trifluoromethyl)pyrimidin-4-yl)-N-(4-(trifluoromethyl)phenethyl)piperidine-3-carboxamide]
> 7.00	> 7.00	N#Cc1ccc(CCNC(=O)[C@@H]2CCCN2c2cc(-c3ccc(CCC(=O)NCCS(=O)(=O)O)cc3)nc(C(F)(F)F)n2)cc1 [Compound 189, (S)-2-(3-(4-(6-(2-((4-cyanophenethyl)carbamoyl)pyrrolidin-1-yl)-2-(trifluoromethyl)pyrimidin-4-yl)phenyl)propanamido)ethanesulfonic acid]
> 7.00	4.52 to 6.00	N#Cc1ccc(CCNC(=O)[C@@H]2CCCN(c3cc(N4CCN(CC(=O)O)CC4)nc(C(F)(F)F)n3)C2)cc1 [Compound 315, (R)-2-(4-(6-(3-((4-cyanophenethyl)carbamoyl)piperidin-1-yl)-2-(trifluoromethyl)pyrimidin-4-yl)piperazin-1-yl)acetic acid]
> 7.00	6.00 to 7.00	N#Cc1ccc(CCNC(=O)[C@@H]2CCCN2c2cc(N3CCN(CCO)CC3)nc(C(F)(F)F)n2)cc1 [Compound 31]
6.00 to 7.00	4.52 to 6.00	O=C(CCCC1CCN(c2cc(N3CCC[C@H]3C(=O)NCCc3cccc(-c4ccncc4)c3)nc(C(F)(F)F)n2)CC1)NCS(=O)(=O)O [Compound 354, (S)-(4-(1-(6-(2-((3-(pyridin-4-yl)phenethyl)carbamoyl)pyrrolidin-1-yl)-2-(trifluoromethyl)pyrimidin-4-yl)piperidin-4-yl)butanamido)methanesulfonic acid]
> 7.00	> 7.00	N#Cc1ccc(CCNC(=O)[C@@H]2CCN2c2cc(N3CCC(CCCC(=O)NCCO)CC3)nc(C(F)(F)F)n2)cc1 [Compound 361, (S)-N-(4-cyanophenethyl)-1-(6-(4-(4-((2-hydroxyethyl)amino)-4-oxobutyl)piperidin-1-yl)-2-(trifluoromethyl)pyrimidin-4-yl)azetidine-2-carboxamide]
> 7.00	> 7.00	N=C(N)NCCCC1CCN(c2cc(N3CCC[C@H]3C(=O)NCCc3ccc(C(F)(F)F)cc3)nc(C(F)(F)F)n2)CC1 [Compound 132, (S)-1-(6-(4-(3-guanidinopropyl)piperidin-1-yl)-2-(trifluoromethyl)pyrimidin-4-yl)-N-(4-(trifluoromethyl)phenethyl)-pyrrolidine-2-carboxamide]
